In patent US9162979B2, “1,5-Diary1-2-alkylpyrrole-3-substituted nitro esters, selective COX-2 inhibitors and nitric oxide donors” (ROTTAPHARM BIOTECH S.R.L., priority 2010, dated 2015):
Counter-ions that a name gives are not always drawn.

Key:
[1] = target: COX-2 (Mus musculus (Mouse), UniProt Q05769); experiment: Evaluation of COX-2 activity: PGE2 production in LPS-stimulated J774 cells; format: cell-based, murine; details: J774 cells stimulated 24 hours with LPS 10 μg/mL; PGE2 by radio-immunological assay; read-out: Cyclooxygenase inhibition COX-2 IC50
Sequence of COX-2 (Q05769 18-604): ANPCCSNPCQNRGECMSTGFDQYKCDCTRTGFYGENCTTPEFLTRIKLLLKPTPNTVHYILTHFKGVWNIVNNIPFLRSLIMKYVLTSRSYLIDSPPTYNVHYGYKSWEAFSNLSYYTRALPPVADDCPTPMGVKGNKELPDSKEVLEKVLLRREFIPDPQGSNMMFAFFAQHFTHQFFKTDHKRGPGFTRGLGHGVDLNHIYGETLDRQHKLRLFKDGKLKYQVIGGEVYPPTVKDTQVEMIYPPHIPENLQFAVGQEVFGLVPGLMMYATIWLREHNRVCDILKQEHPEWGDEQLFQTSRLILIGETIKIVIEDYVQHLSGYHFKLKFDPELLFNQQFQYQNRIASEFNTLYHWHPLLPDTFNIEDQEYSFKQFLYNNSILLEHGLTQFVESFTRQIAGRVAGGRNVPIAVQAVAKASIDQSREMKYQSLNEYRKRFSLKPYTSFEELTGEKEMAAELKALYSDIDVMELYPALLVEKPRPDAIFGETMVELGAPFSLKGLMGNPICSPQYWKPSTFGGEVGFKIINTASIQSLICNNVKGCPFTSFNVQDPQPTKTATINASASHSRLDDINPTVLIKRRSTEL
Experimental: The murine monocyte/macrophage cell line J774 is grown in Dulbecco's modified Eagle's medium (DMEM), enriched with glutamine (2 mM), HEPES (25 mM), penicillin (100 u/mL), streptomycin (100 μg/mL), 10% of fetal bovine serum (FBS) and 1.2% of sodium pyruvate. […] Just before the experiments, the culture medium is replaced with fresh medium without FBS to avoid interference during the radio-immunological phase and the cells are stimulated as described below.
The supernatants are collected for evaluating, by means of radio-immunological assays, the amount of PGE2 produced.
In each group of experiments, wells were used in triplicate for the different treatment conditions. […] The data were evaluated using the sigmoidal dose-response equation (variable slope) (GraphPad software). IC50 and the 95% precision intervals were calculated with the program GraphPad Instat (GraphPad software).

[2] = tested on: isolated rings of thoracic aorta; experiment: Evaluation of release of NO: vasorelaxing activity on endothelium-denuded aortic rings contracted with KCl; set-up: species or system rat; details: for Emax / IC50: Rattus norvegicus; for Emax: relative to contractile tone induced by 20 mM KCl, 1 nM-10 μM, read-out: NO release properties Emax (maximum vasorelaxing effect); for IC50: read-out: NO release properties pIC50 (vasorelaxing potency) (converted)
Experimental: The activity of the compounds was evaluated on isolated rings of thoracic aorta of normotensive male Wistar rats (250-350 g). After light anaesthesia with ether, the rats were sacrificed by cervical dislocation and exsanguination. The aortas were immediately excised, extraneous tissues were removed and the endothelial layer was removed by gently rubbing the surface with a hypodermic needle. Rings of aorta with a width of 5 mm were suspended, with a preload of 2 g, in 20-ml organ baths, containing a solution of “Tyrode” (composition of the saline solution in mM: NaCl 136.8; KCl 2.95; CaCl2 1.80; MgSO4 1.05; NaH2PO4 0.41; NaHCO3 11.9; glucose 5.5), thermostatically controlled at 37° C. and kept in an atmosphere of O2 (95%) and CO2 (5%). […] were recorded by means of an isometric transducer (FTO3 Erba), connected to a microdynamometer (Buxco Electronics).
60 minutes after preparation, removal of the endothelium was confirmed by acetylcholine (ACH) (10 μM) treatment of the vascular rings pre-contracted with KCl (20 mM). Relaxation of less than 10% of the contraction induced by KCl was considered as representative of acceptable removal of the endothelial layer, whereas organs displaying relaxation ≧10% were discarded. 40 minutes after confirmation of complete removal of the endothelium, the aortas were contracted by treatment with a single dose of KCl (20 mM) and after the contraction reached a stable plateau, increasing cumulative concentrations (with progressive increments of 3 times) of the test compounds (1 nM-10 μM) were added. It was found from preliminary experiments that the contraction induced by KCl (20 mM) remained stable in a tonic state for at least 40 minutes. The same experiments were performed in the presence of a well-known inhibitor of guanylate cyclase: ODQ 1 μM, which was incubated in aorta preparations after confirmation of removal of the endothelium.
Analysis of the results. The vasorelaxing activity was evaluated as a percentage (%) relative to the contractile tone induced by 20 mM KCl. The pharmacodynamic efficacy parameter (Emax) corresponds to the maximum vasorelaxing effect induced by the molecule tested, expressed as percentage relative to the contractile tone induced by 20 mM KCl. When the limit concentration of 10 μM (the highest concentration administered) of the test compounds has not reached the maximum effect, the efficacy parameter (Emax) corresponds to the vasorelaxing effect induced by the limit concentration (expressed as percentage relative to the contractile tone induced by 20 mM KCl). The pharmacodynamic parameter of potency of the compounds was expressed as pIC50 calculated as the negative logarithm of the molar concentration of test compound that reduces the contractile tone induced by 20 mM KCl by half. […] The parameters of efficacy and potency were expressed as mean±standard error, for 5-10 experiments. The experimental data were analysed by the program GraphPad Prism 3.0.

[3] = tested on: mouse abdominal contraction (writhing) induced by acetic acid; experiment: Abdominal constriction test induced by acetic acid; format: in vivo
Experimental: Male Swiss albino mice (23-25 g) and Wistar rats (150-200 g) were used.
The antinociceptive activity was determined by the mouse abdominal contraction test using acetic acid (0.6%), which induces writhing, according to Koster's method (Fed. Proc., 1959, 18, 412-418). The number of stretching movements was counted for 10 minutes, starting 5 minutes after injection of acetic acid. The results relating to analgesic activity in the abdominal constriction test with representative compounds of the invention are shown in Table 10.
The test was carried out using 10 animals in the treated group and 20 in the control group (CMC); all the compounds were administered per os with the exception of the compound of Example 8, which was administered i.p.

[4] = concentration reducing contractile tone induced by 20 mM KCl by half

## COc1ccc(-n2c(-c3ccc(S(C)(=O)=O)cc3)cc(CC(=O)OCCO)c2C)cc1 [Example 4-II, 2-(Hydroxy)ethyl-[1-(4-methoxyphenyl)-2-methyl-5-(4-methylsulphonylphenyl)-1H-pyrrol-3-yl]-acetate]
other
  melting point: 105 °C
[1]
  IC50: 1.1 µM

## Cc1c(CC(=O)OCCO)cc(-c2ccc(S(C)(=O)=O)cc2)n1-c1ccc(F)cc1 [Example 2-II, 2-Hydroxyethyl-[2-(1-(4-fluorophenyl)-2-methyl-5-(4-methylsulphonylphenyl)-1H-pyrrol-3-yl)]acetate]
other
  melting point: 129 to 131 °C
[1]
  IC50: 0.089 µM

## Cc1c(CC(=O)OCCO)cc(-c2ccc(S(C)(=O)=O)cc2)n1-c1cccc(F)c1 [Example 3-II]
other
  melting point: 115 °C
[1]
  IC50: 0.085 µM

## COc1ccc(-n2c(-c3ccc(S(C)(=O)=O)cc3)cc(CC(=O)OCCCO[N+](=O)[O-])c2C)cc1 [Example 9, 3-(Nitroxy)propyl-[1-(4-methoxyphenyl)-2-methyl-5-(4-methylsulphonylphenyl)-1H-pyrrol-3-yl]-acetate]
other
  melting point: 115 °C
[2]
  Emax: 41 ± 11%
[1]
  IC50: 0.002 µM
[3]; 20 mg/kg per os
  N writhes: 18.4 ± 3.1

## Cc1c(CC(=O)OCCCCO[N+](=O)[O-])cc(-c2ccc(S(C)(=O)=O)cc2)n1-c1ccc(F)cc1 [Example 11, 4-(Nitrooxy)butyl-2-[1-(4-fluorophenyl)-2-methyl-5-(4-methylsulphonylphenyl)-1H-pyrrol-3-yl]acetate]
other
  melting point: 102 to 104 °C
[2]
  Emax: 40 ± 8%

## Cc1c(CC(=O)NCCO)cc(-c2ccc(S(C)(=O)=O)cc2)n1-c1ccc(F)cc1 [Example 23-II, N-[(2-Hydroxy)ethyl]-2-[1-(4-fluorophenyl)-2-methyl-5-(4-methylsulphonylphenyl)-1H-pyrrol-3-yl]acetamide]
other
  melting point: 99 °C
[1]
  IC50: 0.3 µM

## Cc1c(CC(=O)NC(CCO[N+](=O)[O-])C(=O)O)cc(-c2ccc(S(C)(=O)=O)cc2)n1-c1ccc(F)cc1 (racemic) [Example 32, (R,S)-4-(Nitroxy)-2-[[1-(4-fluorophenyl)-2-methyl-5-(4-methylsulphonylphenyl)-1H-pyrrol-3-yl]acetamido]butanoic Acid]
[2]
  Emax: 42 ± 9%
[1]
  IC50: 1.6 µM
[3]; 10 mg/kg per os
  N writhes: 22.8 ± 3.0
[3]; 20 mg/kg per os
  N writhes: 14.6 ± 2.7

## Cc1c(CCOCCCO)cc(-c2ccc(S(C)(=O)=O)cc2)n1-c1ccc(F)cc1 [Example 41-II, 3-[2-[2-(1-(4-Fluorophenyl)-2-methyl-5-(4-methylsulphonylphenyl)-1H-pyrrol-3-yl)]ethoxy]propanol]
other
  melting point: 100 to 102 °C
[1]
  IC50: 0.94 µM

## Cc1c(CC(=O)NCCCO)cc(-c2ccc(S(C)(=O)=O)cc2)n1-c1cccc(F)c1 [Example 27-II, N-[(3-Hydroxy)propyl]-2-[1-(3-fluorophenyl)-2-methyl-5-(4-methylsulphonylphenyl)-1H-pyrrol-3-yl]acetamide]
other
  melting point: 102 °C
[1]
  IC50: 0.014 µM

## Cc1c(CC(=O)OCCCO[N+](=O)[O-])cc(-c2ccc(S(C)(=O)=O)cc2)n1-c1cccc(F)c1 [Example 8, 3-(Nitroxy)propyl-[1-(3-fluorophenyl)-2-methyl-5-(4-methylsulphonylphenyl)-1H-pyrrol-3-yl]-acetate]
[2]; [4]
  IC50: 0.162 µM
[2]
  Emax: 82 ± 1%
[1]
  IC50: 0.007 µM
[3]; 20 mg/kg i.p.
  N writhes: 16.9 ± 2.4

## Cc1c(CCOCCO)cc(-c2ccc(S(C)(=O)=O)cc2)n1-c1ccc(F)c(F)c1 [Example 39-II]
other
  melting point: 138 to 140 °C
[1]
  IC50: 0.42 µM
[3]; 20 mg/kg per os
  N writhes: 24.8 ± 3.0

## COc1ccc(-n2c(-c3ccc(S(C)(=O)=O)cc3)cc(CC(=O)OCCCCO[N+](=O)[O-])c2C)cc1 [Example 13, 4-(Nitrooxy)butyl-2-[1-(4-methoxyphenyl)-2-methyl-5-(4-methylsulphonylphenyl)-1H-pyrrol-3-yl]acetate]
other
  melting point: 109 °C
[1]
  IC50: 0.55 µM

## Cc1c(C(N)C(=O)OCCO[N+](=O)[O-])cc(-c2ccc(S(C)(=O)=O)cc2)n1-c1ccc(F)cc1 (racemic) [Example 16, (R,S)-2-(Nitrooxy)ethyl-[2-amino-2-[1-(4-fluorophenyl)-2-methyl-5-(4-methylsulphonylphenyl)-1H-pyrrol-3-yl]]-acetate]
[2]; [4]
  IC50: 1.12 µM
[2]
  Emax: 80 ± 7%
[1]
  IC50: 0.74 µM
[3]; 40 mg/kg per os
  N writhes: 24.9 ± 3.0

## COc1ccc(-n2c(-c3ccc(S(C)(=O)=O)cc3)cc(CC(=O)OCCCCO)c2C)cc1 [Example 13-II, 4-(Hydroxy)butyl-2-[1-(4-methoxyphenyl)-2-methyl-5-(4-methylsulphonylphenyl)-1H-pyrrol-3-yl]acetate]
[1]
  IC50: 1.1 µM
[3]; 40 mg/kg per os
  N writhes: 14.7 ± 2.5

## Cc1c(CC(=O)NCCCO)cc(-c2ccc(S(C)(=O)=O)cc2)n1-c1ccc(F)cc1 [Example 26-II, N-[(3-Hydroxy)propyl]-2-[1-(4-fluorophenyl)-2-methyl-5-(4-methylsulphonylphenyl)-1H-pyrrol-3-yl]acetamide]
other
  melting point: 105 °C
[1]
  IC50: 0.068 µM

## Cc1c(CC(=O)NCCO[N+](=O)[O-])cc(-c2ccc(S(C)(=O)=O)cc2)n1-c1ccc(F)cc1 [Example 23, N-[(2-Nitroxy)ethyl]-2-[1-(4-fluorophenyl)-2-methyl-5-(4-methylsulphonylphenyl)-1H-pyrrol-3-yl]acetamide]
other
  melting point: 135 °C
[2]; [4]
  IC50: 4.9 µM
  NO release properties pIC50 (vasorelaxing potency): 5.31 ± 0.05
[2]
  Emax: 68 ± 6%
[1]
  IC50: 0.24 µM

## Cc1c(CCOCCO[N+](=O)[O-])cc(-c2ccc(S(C)(=O)=O)cc2)n1-c1cccc(F)c1 (as salt: nitrate) [Example 38, 2-[2-[2-(1-(3-Fluorophenyl)-2-methyl-5-(4-methylsulphonylphenyl)-1H-pyrrol-3-yl]ethoxy]ethyl Nitrate]
other
  melting point: 94 to 97 °C

## Cc1c(C(N)C(=O)OCCCO[N+](=O)[O-])cc(-c2ccc(S(C)(=O)=O)cc2)n1-c1ccc(F)cc1 (racemic) [Example 18, (R,S)-3-(Nitrooxy)propyl-[2-amino-2-[1-(4-fluorophenyl)-2-methyl-5-(4-methylsulphonylphenyl)-1H-pyrrol-3-yl]]-acetate]
[2]; ODQ 1 μM, guanylate cyclase inhibitor
  vasorelaxing effect in the presence of ODQ: not fully antagonized by ODQ
[2]; [4]
  IC50: 2.19 µM
[2]
  Emax: 84 ± 2%
[1]
  IC50: 0.82 µM
[3]; 3 mg/kg per os
  N writhes: 26.9 ± 2.6
[3]; 10 mg/kg per os
  N writhes: 21.3 ± 2.5
[3]; 20 mg/kg per os
  N writhes: 18.1 ± 3.0
[3]; 40 mg/kg per os
  N writhes: 13.5 ± 2.8

## Cc1c(CCOCCO)cc(-c2ccc(S(C)(=O)=O)cc2)n1-c1cccc(F)c1 [Example 38-II]
[1]
  IC50: 0.046 µM
[3]; 20 mg/kg per os
  N writhes: 26.8 ± 3.2
[3]; 40 mg/kg per os
  N writhes: 17.3 ± 3.5
